Legend:
[1] = test system: ST941 PDX breast cancer model; assay: In vivo efficacy (tumor growth inhibition) in the HR+/HER2− ST941 PDX model; set-up: species or system female athymic nude mice
Method: The HR+/HER2− PDX studies were performed at START (San Antonio, TX) using female athymic nude mice (Foxn1nu/Foxn1nu, JAX Laboratories). Mice received 8.5 μg/mL β estradiol drinking water during study. The live donor mice were established by implanting cryopreserved tumor fragments (around 70 mg). Once ready, the donor tumor fragments were subsequently transplanted into secondary recipient mice for a study expansion.
Palbocidib was dosed twice daily (7 hr apart). PF-06821497 and vehicle was dosed once daily. Fulvestrant was administered twice in the first week, then weekly afterwards. TGI was assessed on Day 36 post first dose.
Tumor volume and body weights were measured twice a week after dosing initiation. Tumor volume i was calculated using the [(Length×Width×Width)/2)] formula. TGI was calculated as 100*(1−ΔT/ΔC). The ΔC (ΔT) was obtained by subtracting the mean tumor burden in the vehicle (treated) group on the first day of treatment (Day 0) from the mean tumor burden in vehicle (treated) group on the assessment day. All mice received treatment continuously until the day of efficacy assessment. Statistical analysis was performed in GraphPad Prism with an unpaired t test, followed by Mann-Whitney test.
The ST941 tumor bearing mice were randomized into 4 groups when the mean tumor volume reached around 177 mm3 and subsequently treated.

[2] = test system: HCC1428 breast cancer model; assay: In vivo efficacy (tumor growth inhibition) in the HR+/HER2− HCC1428 breast cancer model; set-up: species or system female NSG mice
Method: HCC1428 cells (ATCC, CRL-2327) were maintained in PRMI-1640 medium, plus 10% FBS until ready for implant. HCC1428 model was established by serial in vivo propagation. To establish the HCC1428 donor mice, tumor cells (5×10^6 cell/mouse with 50% Cultrex® Basement Membrane Matrix) were subcutaneously implanted in female NSG mice with estrogen supplementation (SC implanted, in 0.36 mg 90-day release, Innovative Research of America, cat #NE-121). Once reaching a range of 700 to 800 mm3, donor tumors were subsequently transplanted into secondary recipient mice for a study expansion. In this study, the HCC1428 model was established by implanting passage 4 tumor fragments into recipient mice. […] TGI was assessed on Day 36 post first dose.
Tumor volume and body weights were measured twice a week after dosing initiation. Tumor volume i was calculated using the [(Length×Width×Width)/2)] formula. TGI was calculated as 100*(1−ΔT/ΔC). […]

## COc1cc(C)[nH]c(=O)c1CN1CCc2c(Cl)cc([C@H](OC)C3COC3)c(Cl)c2C1=O [PF-06821497, 5,8-dichloro-2-[(4-methoxy-6-methyl-2-oxo-1,2-dihydro-pyridin-3-yl)methyl]-7-[(R)-methoxy(oxetan-3-yl)methyl]-3,4-dihydroisoquinolin-1(2H)-one]
[1]; TGI = 100*(1−ΔT/ΔC), doses and schedules per Table 2
  % TGI (D18): 44.6%
[1]; p<0.05 vs vehicle
  antitumor efficacy vs vehicle: significant antitumor efficacy
[2]; Day 36 post first dose, TGI = 100*(1−ΔT/ΔC), doses and schedules per Table 1
  % TGI (D36): 55%
[2]; p<0.05 vs vehicle
  antitumor efficacy vs vehicle: significant antitumor efficacy

From patent US20250049802A1, “COMBINATION THERAPIES AND USES FOR TREATING CANCER” (Pfizer Inc., priority 2021, published 2025)
